The results in this text go back to ChEMBL document CHEMBL6096732 (J Med Chem, 2025).

A word on the IC50: it is the point on the concentration scale where inhibition reaches its midpoint.

The source made the active and inactive calls. No cut-off for these calls is given here.

For data set [1], the system named is B16-F10. Put plainly: Cell cycle arrest in mouse B16-F10 cells assessed as decrease in G2/M phase population at 5 to 20 uM incubated for 48 hrs by RNase A/PI staining based flow cytometric analysis. Type of data set: functional. The settings on record: dose 5-20 µM. For orientation: A flow cytometer gives signals particle by particle.
The test system of data set [2] is B16-F10. Put plainly: Cell cycle arrest in mouse B16-F10 cells assessed as accumulation of cells in G1 phase incubated for 48 hrs by RNase A/PI staining based flow cytometric analysis. Type of data set: functional. The settings on record: dose 5-20 µM.
In the next data set the test system is SK-OV-3. The data set can be described thus: cells. Type of data set: functional, cell-based. The settings on record: Homo sapiens, SK-OV-3, 72 h.
In data set [3] the target is T1, Histone deacetylase 3 (Mus musculus) (UniProt O88895).
T1 sequence (whole entry): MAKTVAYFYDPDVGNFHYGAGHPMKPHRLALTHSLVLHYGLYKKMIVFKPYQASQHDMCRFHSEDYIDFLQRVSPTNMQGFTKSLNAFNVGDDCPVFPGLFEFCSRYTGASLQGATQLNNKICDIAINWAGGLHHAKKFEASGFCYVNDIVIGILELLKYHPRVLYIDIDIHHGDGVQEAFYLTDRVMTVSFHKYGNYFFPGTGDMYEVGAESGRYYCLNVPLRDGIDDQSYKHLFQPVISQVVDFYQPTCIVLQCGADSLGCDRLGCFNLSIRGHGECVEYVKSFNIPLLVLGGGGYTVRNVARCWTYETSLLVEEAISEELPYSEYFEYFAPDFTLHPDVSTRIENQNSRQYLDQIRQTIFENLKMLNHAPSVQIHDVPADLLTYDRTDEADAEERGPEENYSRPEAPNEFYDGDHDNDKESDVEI
Put plainly: Inhibition of HDAC3 in mouse B16-F10 cells assessed as increase in histone H3 acetylation level at 5 to 20 uM incubated for 24 hrs by Western blot analysis. The settings on record: dose 5-20 µM. The class given is cell-based. On the technique in general: In western blotting, separated proteins are transferred to a membrane and probed.

For data set [4], the system named is B16-F10. Put plainly: Downregulation of PARP1 expression in mouse B16-F10 cells at 2 uM incubated for 24 hrs by Western blot analysis. The class given is functional, cell-based.
A further data set deals with Mus musculus. Put plainly: Immunomodulatory activity in male C57BL/6 mouse model implanted with mouse B16-F10 cells assessed as increase in CD3+ CD8+ T cells in tumor at 50 mg/kg, po co-administered with NP-19 as once daily dosage via gavage for 14 days by flow cytometric analysis (reference value: 3.2 %). Type of data set: functional. The settings on record: time 14 day.

For data set [5], the target named is Polyamine deacetylase HDAC10 (Homo sapiens, UniProt Q969S8). Put plainly: Inhibition of recombinant HDAC10 (unknown origin) preincubated for 1 hr followed by substrate addition and measured after 2 hrs by fluorescence based micro plate reader analysis.
Polyamine deacetylase HDAC10, sequence (Q969S8 whole entry): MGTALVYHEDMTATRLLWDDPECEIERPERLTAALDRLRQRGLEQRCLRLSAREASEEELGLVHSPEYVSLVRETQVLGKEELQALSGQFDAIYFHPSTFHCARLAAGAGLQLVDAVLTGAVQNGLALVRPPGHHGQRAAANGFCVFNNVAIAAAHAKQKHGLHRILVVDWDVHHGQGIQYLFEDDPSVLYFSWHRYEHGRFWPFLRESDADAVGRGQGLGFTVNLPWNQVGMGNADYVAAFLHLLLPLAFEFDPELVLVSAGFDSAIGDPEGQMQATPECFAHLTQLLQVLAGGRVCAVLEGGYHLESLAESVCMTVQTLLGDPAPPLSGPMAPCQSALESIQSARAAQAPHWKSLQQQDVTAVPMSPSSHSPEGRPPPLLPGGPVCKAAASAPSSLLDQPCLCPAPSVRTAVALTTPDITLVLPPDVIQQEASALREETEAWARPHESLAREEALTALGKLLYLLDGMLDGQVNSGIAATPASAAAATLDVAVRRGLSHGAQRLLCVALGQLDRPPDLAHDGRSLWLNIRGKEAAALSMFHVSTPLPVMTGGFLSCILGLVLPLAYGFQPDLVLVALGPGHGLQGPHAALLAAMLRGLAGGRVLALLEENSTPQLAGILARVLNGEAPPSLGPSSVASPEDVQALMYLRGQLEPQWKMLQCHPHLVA
Data set [6] concerns B16-F10. The data set can be described thus: Antitumor activity against mouse B16-F10 cells implanted in male C57BL/6 mouse model assessed as tumor growth inhibition at 50 mg/kg, po administered once daily via gavage for 14 days relative to control. Type of data set: functional. The settings on record: B16-F10, 336 h, time 14 day, read-out: TGI.
The test system of data set [7] is 4T1. The data set can be described thus: Downregulation of PARP1 expression in mouse 4T1 cells at 2 uM incubated for 24 hrs by Western blot analysis. Type of data set: functional, cell-based.
Data set [8] has as its system 4T1. Put plainly: Effect on acetylated alpha-tubulin expression level in mouse 4T1 cells at 5 to 20 uM incubated for 24 hrs by Western blot analysis. Type of data set: functional, cell-based. The settings on record: dose 5-20 µM.
Data set [9] is described as follows: Retention time of compound by HPLC analysis. The class given is physicochemical.
The test system of data set [10] is 4T1. Put plainly: Antitumor activity against mouse 4T1 cells implanted in female BALB/c mouse model assessed as induction of DNA damage by measuring increase in gamma-H2AX expression in tumor co-administrated orally with olaparib as once daily dose via gavage for 14 days by immunohistochemistry analysis. The class given is functional, cell-based. The settings on record: route po, time 14.0 day.

Description for SK-OV-3: Antiproliferative activity against human SK-OV-3 cells assessed as inhibition of cell growth incubated for 72 hrs by MTT assay

As to `CCCNNC(=O)c1ccc(Cn2c3ccccc3c3c(-c4ccccn4)nc4ccccc4c32)cc1`, the result with B16-F10 [1], with B16-F10 [4], with 4T1 [7] and in the data set on 4T1 [10] was Active. Also, the Activity result was “Dose-dependent-effect” in the data set with B16-F10 [2] and 32% in the data set with Mus musculus. For the same compound, the IC50 with SK-OV-3 was 12.8 µM; in data set [5] it was more than 10 µM. Further, in [3], the inhibition result was “Active”. For the same compound, the inhibition in vivo at 50 mg/kg in the data set on B16-F10 [6] was determined as 67%. Also, in the data set on 4T1 [8], the outcome was inactive. In [9], this compound had a Retention_time of 10.16 min.
